Legend:
[1] = system: Anabaena PCC7120; assay: Net O2 exchange (photosynthesis and respiration), O2 electrode; type: cell-based, Anabaena PCC7120 (Cyanobacteria)
Experimental: (§1) The cyanobacterium Anabaena PCC7120 was grown in BG-11 medium as was previously described (Marcus Y, et al., 2005. J Bacteriol 187, 4222-4228). The green eukaryotic alga Dunaliella salina was grown on a medium described by Ben-Amotz and Avron (Ben-Amotz A and Avron M 1983. Plant Physiol 72, 593-597), under 20 μmol photons m^−2 sec^−1 at 30° C. The aquatic plant Lemna was collected from an open pond at the Botanical garden of Tel Aviv University. Seedlings of Avena sterilis were grown in pots in a greenhouse. The marine diatom Phaeodactylum tricornutum was grown as described in Haimovich-Dayan et al. (Haimovich-Dayan M. et al. 2012. New Phytol 195:177-185).
(§2) The rate of net O2 exchange was determined using a Clark-type O2 electrode (Rank Brothers Ltd, UK). Fluorescent measurements (quantum yield, photochemical and non photochemical quenching) were determined using a modulated fluorometer (PAM, Walz, Germany) as described by Schreiber et al. (Schreiber U et al., 1986. fluorometer. Photosynth Res 10, 51-62) and Snir et al. (Snir A, et al., 2006. Photosynth Res 90, 233-242).
(§3) The algae Anabaena PCC7120 (Cyanobacteria), Dunaliella salina (Chlorophyta) and Phaeodactylum tricornutum (Diatoms) were each grown in its suitable medium as described hereinabove towards the mid logarithmic phase. 1 mM Ornidazole was then added to the medium for 5 min, and respiration and photosynthesis were measured for at least 10 min.
The effect of Ornidazole on the rate of photosynthesis of Anabaena was also determined. The algae were grown under various light intensities and saturating inorganic carbon (Ci) concentration, or under various Ci concentrations and saturating irradiance.

[2] = system: Dunaliella salina; assay: as above; type: cell-based, Dunaliella salina (Chlorophyta)
Experimental: as §1, §2, §3

[3] = system: Avena sterilis; assay: Photosynthetic quantum yield of immersed leaf blades (PAM fluorimeter); type: in vivo; settings: 1 mM Ornidazole in water, 3.5 hours
Experimental: Leaves of Avena seedlings grown in a pot (still attached to the stem) were immersed in 1 mM Ornidazole for the indicated times. The photosynthetic quantum yield under various light intensities was determined with a PAM fluorimeter. The rate of net O2 exchange was determined using a Clark-type O2 electrode (Rank Brothers Ltd, UK). Fluorescent measurements (quantum yield, photochemical and non photochemical quenching) were determined using a modulated fluorometer (PAM, Walz, Germany) as described by Schreiber et al. (Schreiber U et al., 1986. fluorometer. Photosynth Res 10, 51-62) and Snir et al. (Snir A, et al., 2006. Photosynth Res 90, 233-242). Similar results were obtained by immersion of leaf blades of the weed Avena sterilis in 1 mM Ornidazole in water. After 3.5 hours of incubation the quantum yield of photosynthesis decreased by 50% under limiting light intensity and by 85% under saturating light intensity (FIG. 4).

[4] = system: photosynthetic electron transport in Anabaena; assay: Photosynthetic electron transport from H2O via reaction centers II and I and Methyl viologen to O2; type: cell-based, Anabaena PCC7120; settings: water to Methyl viologen (1 mM) to oxygen; O2 electrode
Experimental: The rates were determined for cells grown in a growth medium at 30° C. under 180 μmol photons×m^−2×sec^−1. The rate of electron transport from H2O via reaction centers II and I and Methyl viologen to O2 was determined in the presence of 1 mM methyl viologen using an O2 electrode. The effects of Ornidazole on the dark and light reactions of the photosynthetic apparatus were examined. Ornidazole had no effect on the photosynthetic electron transport in Anabaena measured from water as electron donor through the two reaction centers to Methyl viologen and finally to oxygen as an electron acceptor (FIG. 5).

[5] = Stability in BG-11 medium lacking cells (LC-MS); type: physicochemical; settings: 0.1 mM, dark or light, four days
Experimental: (§4) Ornidazole (molecular mass 220 and 222 due to two isotopes of chlorine) or degradation products were sought by LC-MS. The chromatograms of samples from the first and fourth days are shown in FIG. 7B and FIG. 7C, respectively. The retention time and molecular mass of the isolated molecules are designated.
(§5) The concentrations of Ornidazole and its degradation product in the medium were determined during the growth of the cyanobacterium Anabaena PCC7120 and in media lacking cyanobacteria in the dark or under illumination. Ornidazole at 0.1 mM concentration was added to three growth tubes containing BG-11 medium: one growth tube was kept in the dark, the second under light conditions of 60 μmol photons m^−2 sec^−1 and the third tube, to which Anabaena cells were added, was also kept under similar light conditions. Samples from each tube were taken every day, separated on a C18 reverse phase HPLC column, and Ornidazole (molecular mass 220 and 222 due to two isotopes of chlorine) or degradation products were sought by LC-MS. A degradation product of molecular mass 184, identified as C7H9N3O3, was found in all three tubes.

[6] = system: Anabaena PCC7120; assay: Biodegradation in BG-11 medium in the presence of Anabaena cells (LC-MS); settings: 0.1 mM, in the presence of cyanobacteria
Experimental: as §4, §5

[7] = biological target: triose phosphate isomerase (Homo sapiens, UniProt P60174); settings: glycolytic triose phosphate isomerase; cited from earlier work
triose phosphate isomerase, sequence (P60174 whole entry, species assumed): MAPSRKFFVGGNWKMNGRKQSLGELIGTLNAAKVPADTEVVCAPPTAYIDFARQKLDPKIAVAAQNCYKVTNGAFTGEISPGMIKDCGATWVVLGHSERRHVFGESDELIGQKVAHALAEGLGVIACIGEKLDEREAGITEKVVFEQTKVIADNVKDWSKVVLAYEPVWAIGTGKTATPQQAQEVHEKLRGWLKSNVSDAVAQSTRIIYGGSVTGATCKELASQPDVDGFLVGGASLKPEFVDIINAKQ

[8] = Anabaena PCC7120, 1 mM Ornidazole added for 5 min
[9] = Dunaliella salina, 1 mM Ornidazole added for 5 min

## Cc1ncc([N+](=O)[O-])n1CC(O)CCl (centres unmarked) [Ornidazole, 1-chloro-3-(2-methyl-5-nitro-1H-imidazol-1-yl)propan-2-ol]
[1]; [8]
  Photosynthesis: −3.7 μmol O2 mg^−1 chl h^−1
  Respiration: −26.5 μmol O2 mg^−1 chl h^−1
[1]; Anabaena, 1 mM, read-out: inhibition of respiration rate
  inhibition at 1000 µM: 30 to 35%
[1]; Anabaena, higher concentrations (than 1 mM) or longer incubation time
  effect on photosynthesis: abolished photosynthesis
[1]; limiting irradiance
  effect on photosynthetic rate: inhibited the photosynthetic rate to a lesser extent
[1]; saturating irradiance at any Ci concentration
  effect on photosynthetic rate: concentration-dependent decrease in the photosynthetic rate
[2]; [9]
  Photosynthesis: 17.88 μmol O2 mg^−1 chl h^−1
  Respiration: −3.13 μmol O2 mg^−1 chl h^−1
[2]; Dunaliella salina, Dunaliella, 1 mM, read-out: inhibition of respiration rate
  inhibition at 1000 µM: 30 to 35%
[2]; Dunaliella, higher concentrations (than 1 mM) or longer incubation time
  effect on photosynthesis: abolished photosynthesis
[3]; limiting light intensity
  decrease of quantum yield of photosynthesis: 50%
[3]; saturating light intensity
  decrease of quantum yield of photosynthesis: 85%
[4]
  effect on photosynthetic electron transport: no effect
[5]
  Ornidazole concentration in medium: remained stable
[6]; after four days of incubation
  Ornidazole remaining, of its initial concentration: 10%
[6]; after seven days
  Ornidazole detection in medium: could no longer be detected
[7]
  inhibition of enzyme activity: inhibits the activity

Reference: patent US9237750B2, “Ornidazole and related compounds for use as herbicides” (RAMOT AT TEL-AVIV UNIVERSITY LTD., priority 2012, dated 2016)
